{"source": "patent US20240398999A1", "about": "“DC BIOMIMETIC MEMBRANE NANOPARTICLE LOADED WITH NIR-II AIE DYE, PREPARATION METHOD THEREFOR AND USE THEREOF” (SHENZHEN INSTITUTES OF ADVANCED TECHNOLOGY CHINESE ACADEMY …, priority 2023, published 2024)", "key": {"[1]": {"conditions": "808 nm laser, 3 min irradiation per cycle", "experimental": "The nanoparticle solution filled with the BPBBT dot was fixed and irradiated by using an 808 nm laser. Meanwhile, the temperature of the solution was monitored in real time by using a thermal imaging camera. The laser was turned off after 3 min of irradiation, and the laser was turned on again when the temperature was recovered to the initial temperature. In this way, 5 cycles were repeated, and whether the highest temperature of each cycle was the same or not was observed so as to judge the stability of photothermal conversion."}, "[2]": {"conditions": "BPBBT solution in 5% THF at the same concentration (50 μM); stated as known; cited from earlier work"}}}
{"substance": "4,8-bis[4-(N, N-bis(4-octyloxyphenyl)amino)phenyl]benzo[1,2-c:4,5-c′]bis([1,2,5]thiadiazole) [BPBBT]", "values": [{"measurement": "maximum temperature", "setting": "[1]", "value": "about 48 °C"}, {"measurement": "photothermal conversion efficiency", "setting": "[2]", "value": 22, "unit": "%"}]}
